Experimental data published in patent US9650415B2, “Uric acid-lowering agent” (Suntory Holdings Limited, priority 2014, dated 2017).

Assays:
hyperuricemic mice = experiment: action of lowering serum uric acid levels for hyperuricemic mice (potassium oxonate model); format: in vivo, BALBc mice; conditions: FIG. 2
Experimental: As to the animals used, male 7-week old BALBc mice were purchased from CLEA Japan, Inc., and subjected to an experiment after a one-week period of conditioning. The animals were bred in a breeding room with air-conditioning facilities (temperature: 23.5°±1.0° C., humidity: 55±10 RH %, the number of ventilation: 12 to 15 times/hour, illuminated: from 7:00 to 19:00 each day). During the period of conditioning, the mice were allowed to take a commercially available feed (CE-2, manufactured by CLEA Japan, Inc.) and distilled water ad libitum.
Oxonic acid is a substance that raises a blood uric acid level by inhibiting a urikase, a metabolic enzyme for uric acid. In view of the above, potassium oxonate (PO) was administered, thereby generating hyperuricemic model animals (see, Planta Med 2009; 75:302-306). […] In all the groups that include PO administration, PO previously suspended in a 0.5% aqueous CMC-Na solution was administered at a concentration of 250 mg/kg, and Normal Group was administered with a 0.5% aqueous CMC-Na solution, each being administered intraperitoneally. […] After 2 hours from the administration with PO, the blood was collected from the abdominal vena cava under anesthesia. After blood removal, the liver was harvested. The collected blood was allowed to stand at room temperature for 45 minutes, and centrifuged at 8,000 rpm for 10 minutes to recover sera. Here, the sera and the liver were preserved at −80° C. until the measurements were carried out.
The serum uric acid level was measured using 7180 Clinical Analyzer (manufactured by Hitachi Technologies).
The actions of lowering serum uric acid levels of soybean peptide heat-treated products were studied using hyperuricemic model animals, in the same manner as in Test Example 2. […] For each of the above-mentioned groups, the administration and the blood collection were carried out in the same manner as in Test Example 2 to measure a serum uric acid level. Here, the mixture of the 8 kinds of cyclic dipeptides prepared by using synthesized products of Cyclo(Ser-Tyr), Cyclo(Tyr-Gly), Cyclo(Tyr-Tyr), Cyclo(Phe-Tyr), Cyclo(Leu-Tyr), Cyclo(Val-Tyr), Cyclo(Ile-Tyr), and Cyclo(Asn-Tyr), in amounts to be contained in the soybean peptide heat-treated product, was used.
The actions of lowering serum uric acid levels of soybean peptide heat-treated products according to dose were studied using hyperuricemic model animals, in the same manner as in Test Example 3. […] For each of the above-mentioned groups, the administration and the blood collection were carried out in the same manner as in Test Example 2 to measure a serum uric acid level.

xanthine oxidase (XO) = experiment: in vitro xanthine oxidase (XO) inhibiting action; format: biochemical; conditions: 4 U/L XO in PBS pH 7.5, xanthine substrate, absorbance at 295 nm after 30 minutes; mean±standard error
Experimental: The in vitro xanthine oxidase (XO) inhibiting action was studied on 210 kinds of cyclic dipeptides, linear dipeptides Tyr-Gly and Gly-Tyr, and an amino acid Tyr. […] Thereafter, 20 μL of a 250 μM xanthine solution previously dissolved in the PBS was added thereto, and the absorbance after 30 minutes was measured using a spectrophotometer (Synegy HT, manufactured by Bio Tek). The XO inhibition rate (%) at each concentration was calculated by the following calculation formula, to obtain activities of inhibiting XO (IC50 values). […] [formula] • wherein A: the absorbance of an enzyme-added, sample-non-added group at 295 nm; • B: the absorbance of an enzyme-non-added, sample-non-added group at 295 nm; • C: the absorbance of an enzyme-added, sample-added group at 295 nm; and • D: the absorbance of an enzyme-non-added, sample-added group at 295 nm.

Structure (SMILES) | IC50 (xanthine oxidase (XO)) | also measured
Oc1ncnc2[nH]ncc12 [Allopurinol, reference compound] | – | serum uric acid level, effect versus PO Group (hyperuricemic mice; 1 mg/kg oral): significant difference
O=C1NC(Cc2ccc(O)cc2)C(=O)NC1Cc1ccccc1 (centres unmarked) [Cyclo(Phe-Tyr), cyclophenylalanyltyrosine] | 22.2 ± 0.8 µM | –
O=C1CNC(=O)C(Cc2ccc(O)cc2)N1 (centres unmarked) [Cyclo(Tyr-Gly), cyclotyrosylglycine] | – | serum uric acid level, effect versus PO Group (hyperuricemic mice; 30 mg/kg oral): significant difference; serum uric acid level, effect versus PO Group (hyperuricemic mice; 100 mg/kg oral): significant difference; action of lowering serum uric acid level (hyperuricemic mice; Cyclo(Tyr-Gly) 10, 30, 100 mg/kg oral, PO 250 mg/kg i.p.): has an action of lowering a uric acid level in a dose-dependent manner

More lines, main results first:

IC50 (xanthine oxidase (XO)) | Structure (SMILES) | also measured
113 ± 11.4 µM | NC(=O)CC1NC(=O)C(Cc2ccc(O)cc2)NC1=O (centres unmarked) [Cyclo(Asn-Tyr), cycloasparaginyltyrosine] | –
172 ± 13.5 µM | O=C(O)CC1NC(=O)C(Cc2ccc(O)cc2)NC1=O (centres unmarked) [Cyclo(Asp-Tyr), cycloaspartyltyrosine] | –
29.5 ± 2.9 µM | O=C1NC(Cc2ccc(O)cc2)C(=O)NC1Cc1ccc(O)cc1 (centres unmarked) [Cyclo(Tyr-Tyr), cyclotyrosyltyrosine] | –
